Measured values reported in the NIST ThermoML archive (doi:10.1021/acs.jced.7b00241).
± gives the expanded uncertainty stated by the source.

Conditions: Liquid; for mass density: 298.15 K, 101.33 kPa, Vibrating tube method; for Normal boiling temperature: Ebulliometric method (Recirculating still)

CC(C)CO [2-methyl-1-propanol] showed a mass density of 798 ± 0.2 kg/m3 and a Normal boiling temperature of 107.83 ± 0.2 °C.
CC(=O)OCC(C)C [2-methylpropyl ethanoate] gave a mass density of 866.2 ± 0.2 kg/m3 and a Normal boiling temperature of 116.8 ± 0.2 °C.
C[S+](C)[O-] [dimethyl sulfoxide] gave a mass density of 1095.5 ± 0.2 kg/m3 and a Normal boiling temperature of 190.70 ± 0.2 °C.
